Measurements: US12325701B2, “YKL-40 inhibitors and their therapeutic” (Molecure S.A., priority 2022, dated 2025)
Structures can show the parent of a compound that is named as a salt.

These compounds were tested against YKL-40 (YKL-40: heparan sulfate interaction) (Homo sapiens (Human), UniProt P36222) (assay: YKL-40:HS assay, heparan sulfate interference AlphaScreen). Conditions: read-out: YKL-40:HS, IC50/max % inh (max % inh).
Chain of YKL-40 (YKL-40: heparan sulfate interaction) (P36222 22-383): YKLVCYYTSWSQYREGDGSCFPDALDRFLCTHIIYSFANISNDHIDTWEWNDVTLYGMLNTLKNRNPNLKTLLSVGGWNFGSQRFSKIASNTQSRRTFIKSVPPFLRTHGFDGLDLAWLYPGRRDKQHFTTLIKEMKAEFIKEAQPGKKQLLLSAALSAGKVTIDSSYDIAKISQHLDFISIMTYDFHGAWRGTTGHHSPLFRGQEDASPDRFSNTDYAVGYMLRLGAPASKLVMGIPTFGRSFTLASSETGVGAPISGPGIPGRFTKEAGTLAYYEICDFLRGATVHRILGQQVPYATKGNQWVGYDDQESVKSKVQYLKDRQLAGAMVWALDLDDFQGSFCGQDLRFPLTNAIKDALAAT
Method: Positive and negative control wells received just 8 uL of MST buffer containing 2% DMSO without inhibitor in the 2nd step (ii). In addition, negative control received just 8 uL of MST buffer containing 0% DMSO without YKL-40-histag in the 3nd step (iii). Finally, the plate luminescence was excited at 680 nm and the emission read at 520-620 nm using the AlphaScreen module in the The Spark™ 1 μM multimode microplate reader (Tecan Trading AG, Mannedorf, Switzerland). Inhibition percentage and IC50 values were determined using GraphPad Prism 7.0 software (GraphPad Software, San Diego, CA, USA).
`Cc1nc(N2CCC(N3C[C@H](C)OC[C@@H]3Cc3ccc(Cl)cc3)CC2)sc1C` [Compound 183, (2S,5S)-5-(4-chlorobenzyl)-4-(1-(4,5-dimethylthiazol-2-yl)piperidin-4-yl)-2-methylmorpholine 2,2,2-trifluoroacetate] was tested, and the inhibition was 53%. For `CN1C[C@H](Cc2ccc(Cl)cc2)N(C2CCN(c3cc(Cl)ccn3)CC2)C[C@@H]1Cn1ccnc1` [Compound 82, (2R,5S)-2-((1H-imidazol-1-yl)methyl)-5-(4-chlorobenzyl)-4-(1-(4-chloropyridin-2-yl)piperidin-4-yl)-1-methylpiperazine hydrochloride], the inhibition was 75%. `CN1C[C@H](Cc2ccc(Cl)cc2)N(C2CCN(c3ccccn3)CC2)C[C@@H]1Cc1ccc(Cl)cc1` [Compound 63, (2S,5S)-2,5-bis(4-chlorobenzyl)-1-methyl-4-(1-(pyridin-2-yl)piperidin-4-yl)piperazine 2,2,2-trifluoroacetate] gave an inhibition of 85%.

These compounds were tested against YKL-40 (YKL-40-histag, chitin binding site) (Homo sapiens (Human), UniProt P36222) (assay: YKL-40:4 assay, competitive chitin binding site AlphaScreen). Conditions: not given.
Chain of YKL-40 (YKL-40-histag, chitin binding site) (P36222 22-383): as above
`C[C@H]1CN(C2CCN(c3ccncc3)CC2)[C@@H](Cc2ccc(Cl)cc2)CO1` [Example 28, (2S,5S)-5-(4-chlorobenzyl)-2-methyl-4-(1-(pyridin-4-yl)piperidin-4-yl)morpholine 2,2,2-trifluoroacetate] gave an IC50 of over 10 µM. Compound `C[C@H]1CN(C2CCN(c3ccccc3C#N)CC2)[C@@H](Cc2ccc(Cl)cc2)CO1` [Compound 119, 2-(4-((2S,5S)-5-(4-chlorobenzyl)-2-methylmorpholino)piperidin-1-yl)benzonitrile 2,2,2-trifluoroacetate] has an IC50 of over 10 µM. For `C[C@H]1CN(C2CCN(c3cc(C(C)(C)O)ccn3)CC2)[C@@H](Cc2ccc(Cl)cc2)CO1` [Compound 131, 2-(2-(4-((2S,5S)-5-(4-chlorobenzyl)-2-methylmorpholino)piperidin-1-yl)pyridin-4-yl)propan-2-ol 2,2,2-trifluoroacetate], the IC50 was over 10 µM. `C[C@H]1CN(C2CCN(c3ccnc(N)n3)CC2)[C@@H](Cc2ccc(Cl)cc2)CO1` [Compound 67, 4-(4-((2S,5S)-5-(4-chlorobenzyl)-2-methylmorpholino)piperidin-1-yl)pyrimidin-2-amine 2,2,2-trifluoroacetate] was tested, and the IC50 was over 10 µM. `C[C@H]1CN(C2CCN(c3ncccc3O)CC2)[C@@H](Cc2ccc(Cl)cc2)CO1` [Compound 160, 2-(4-((2S,5S)-5-(4-chlorobenzyl)-2-methylmorpholino)piperidin-1-yl)pyridin-3-ol 2,2,2-trifluoroacetate] showed an IC50 of over 10 µM. In the case of `CN1C[C@H](Cc2ccc(Cl)cc2)N(C2CCN(c3cc(Cl)ccn3)CC2)C[C@@H]1COc1ccc2ccccc2c1` [Compound 84, (2S,5R)-2-(4-chlorobenzyl)-1-(1-(4-chloropyridin-2-yl)piperidin-4-yl)-4-methyl-5-((naphthalen-2-yloxy)methyl)piperazine 2,2,2-trifluoroacetate], the IC50 is reported as over 10 µM. With `C[C@H]1CN(C2CCN(C(=O)OC(C)(C)C)CC2)[C@@H](Cc2ccc(Cl)cc2)CO1` [Compound 8d, tert-butyl 4-((2S,5S)-5-(4-chlorobenzyl)-2-methylmorpholino)piperidine-1-carboxylate] the IC50 was over 10 µM. `C[C@H]1CN(C2CCN(c3c(F)cccc3C#N)CC2)[C@@H](Cc2ccc(Cl)cc2)CO1` [Compound 118, 2-(4-((2S,5S)-5-(4-chlorobenzyl)-2-methylmorpholino)piperidin-1-yl)-3-fluorobenzonitrile 2,2,2-trifluoroacetate] showed an IC50 of over 10 µM. Work on `C[C@H]1CN(C2CCN(c3ccc(C#N)cn3)CC2)[C@@H](Cc2ccc(Cl)cc2)CO1` [Example 19, 6-(4-((2S,5S)-5-(4-chlorobenzyl)-2-methylmorpholino)piperidin-1-yl)nicotinonitrile 2,2,2-trifluoroacetate] yielded an IC50 of over 10 µM. Compound `C[C@H]1CN(C2CCN(c3ccccc3F)CC2)[C@@H](Cc2ccc(Cl)cc2)CO1` [Compound 126, (2S,5S)-5-(4-chlorobenzyl)-4-(1-(2-fluorophenyl)piperidin-4-yl)-2-methylmorpholine 2,2,2-trifluoroacetate] has an IC50 of over 10 µM. `Cc1nsc(N2CCC(N3C[C@H](C)OC[C@@H]3Cc3ccc(Cl)cc3)CC2)n1` [Compound 180, (2S,5S)-5-(4-chlorobenzyl)-2-methyl-4-(1-(3-methyl-1,2,4-thiadiazol-5-yl)piperidin-4-yl)morpholine 2,2,2-trifluoroacetate] showed an IC50 of over 10 µM. Work on `C[C@H]1CN(C2CCN(c3ncnc(N(C)C)n3)CC2)[C@@H](Cc2ccc(Cl)cc2)CO1` [Compound 175, 4-(4-((2S,5S)-5-(4-chlorobenzyl)-2-methylmorpholino)piperidin-1-yl)-N,N-dimethyl-1,3,5-triazin-2-amine 2,2,2-trifluoroacetate] yielded an IC50 of over 10 µM. Work on `C[C@H]1CN(C2CCN(c3noc(=O)[nH]3)CC2)[C@@H](Cc2ccc(Cl)cc2)CO1` [Compound 165, 3-(4-((2S,5S)-5-(4-chlorobenzyl)-2-methylmorpholino)piperidin-1-yl)-1,2,4-oxadiazol-5(4H)-one 2,2,2-trifluoroacetate] yielded an IC50 of over 10 µM. With `CC(C)c1nc(N2CCC(N3C[C@H](C)OC[C@@H]3Cc3ccc(Cl)cc3)CC2)no1` [Compound 163, (2S,5S)-5-(4-chlorobenzyl)-4-(1-(5-isopropyl-1,2,4-oxadiazol-3-yl)piperidin-4-yl)-2-methylmorpholine 2,2,2-trifluoroacetate] the IC50 was over 10 µM. With `CC(C)C[C@H]1CN(C2CCN(c3ccccn3)CC2)[C@@H](Cc2ccc(Cl)cc2)CN1CC(=O)OC(C)(C)C` [Compound 2g, tert-butyl 2-((2S,5S)-5-(4-chlorobenzyl)-2-isobutyl-4-(1-(pyridin-2-yl)piperidin-4-yl)piperazin-1-yl)acetate] the IC50 was over 10 µM. `C[C@H]1CN(C2CCN(c3ncc(C(F)(F)F)o3)CC2)[C@@H](Cc2ccc(Cl)cc2)CO1` [Compound 168, (2S,5S)-5-(4-chlorobenzyl)-2-methyl-4-(1-(5-(trifluoromethyl)oxazol-2-yl)piperidin-4-yl)morpholine 2,2,2-trifluoroacetate] was tested, and the IC50 was over 10 µM. With `C[C@H]1CN(C2CCN(c3cc(F)ncn3)CC2)[C@@H](Cc2ccc(Cl)cc2)CO1` [Example 24, (2S,5S)-5-(4-chlorobenzyl)-4-(1-(6-fluoropyrimidin-4-yl)piperidin-4-yl)-2-methylmorpholine 2,2,2-trifluoroacetate] the IC50 was over 10 µM. Work on `C[C@H]1CN(C2CCN(c3cc(=O)[nH]cn3)CC2)[C@@H](Cc2ccc(Cl)cc2)CO1` [Compound 167, 6-(4-((2S,5S)-5-(4-chlorobenzyl)-2-methylmorpholino)piperidin-1-yl)pyrimidin-4(3H)-one 2,2,2-trifluoroacetate] yielded an IC50 of over 10 µM. `C[C@H]1CN(C2CCN(c3noc(C(F)(F)F)n3)CC2)[C@@H](Cc2ccc(Cl)cc2)CO1` [Compound 164, (2S,5S)-5-(4-chlorobenzyl)-2-methyl-4-(1-(5-(trifluoromethyl)-1,2,4-oxadiazol-3-yl)piperidin-4-yl)morpholine 2,2,2-trifluoroacetate] was tested, and the IC50 was over 10 µM. For `C[C@H]1CN(C2CCN(c3ncccc3C(N)=O)CC2)[C@@H](Cc2ccc(Cl)cc2)CO1` [Compound 114, 2-(4-((2S,5S)-5-(4-chlorobenzyl)-2-methylmorpholino)piperidin-1-yl)nicotinamide 2,2,2-trifluoroacetate], the IC50 was over 10 µM. Work on `COc1ncnc(N2CCC(N3C[C@H](C)OC[C@@H]3Cc3ccc(Cl)cc3)CC2)n1` [Compound 171, (2S,5S)-5-(4-chlorobenzyl)-4-(1-(4-methoxy-1,3,5-triazin-2-yl)piperidin-4-yl)-2-methylmorpholine 2,2,2-trifluoroacetate] yielded an IC50 of over 10 µM. `C[C@H]1CN(C2CCN(c3cccc(F)c3)CC2)[C@@H](Cc2ccc(Cl)cc2)CO1` [Compound 127, (2S,5S)-5-(4-chlorobenzyl)-4-(1-(3-fluorophenyl)piperidin-4-yl)-2-methylmorpholine 2,2,2-trifluoroacetate] gave an IC50 of over 10 µM.

Same assay, conditions: competition with biotinylated compound 4, 20 nM; YKL-40-histag 2.5 nM; read-out: YKL-40:4, IC50/Kd (IC50 range)
Work on `CC(C)C1OC[C@H](Cc2ccc(Cl)cc2)N1C1CCN(c2ccccn2)CC1` (stereo partly drawn) [Compound 150, (4S)-4-(4-chlorobenzyl)-2-isopropyl-3-(1-(pyridin-2-yl)piperidin-4-yl)oxazolidine hydrochloride] yielded an IC50 of over 10 µM. In the case of `Cc1ccc(N2CCC(N3C[C@H](C)OC[C@@H]3Cc3ccc(Cl)cc3)CC2)nc1` [Compound 136, (2S,5S)-5-(4-chlorobenzyl)-2-methyl-4-(1-(5-methylpyridin-2-yl)piperidin-4-yl)morpholine hydrochloride], the IC50 is reported as over 10 µM. For `C[C@H]1CN(C2CCN(c3cncc(C(F)(F)F)n3)CC2)[C@@H](Cc2ccc(Cl)cc2)CO1` [Compound 153, (2S,5S)-5-(4-chlorobenzyl)-2-methyl-4-(1-(6-(trifluoromethyl)pyrazin-2-yl)piperidin-4-yl)morpholine hydrochloride], the IC50 was over 10 µM. `Cc1cccc(N2CCC(N3C[C@H](C)OC[C@@H]3Cc3ccc(Cl)cc3)CC2)n1` [Compound 135, (2S,5S)-5-(4-chlorobenzyl)-2-methyl-4-(1-(6-methylpyridin-2-yl)piperidin-4-yl)morpholine hydrochloride] gave an IC50 of over 10 µM. With `C[C@H]1CN(C2CCN(c3cnc(C(F)(F)F)cn3)CC2)[C@@H](Cc2ccc(Cl)cc2)CO1` [Compound 158, (2S,5S)-5-(4-chlorobenzyl)-2-methyl-4-(1-(5-(trifluoromethyl)pyrazin-2-yl)piperidin-4-yl)morpholine hydrochloride] the IC50 was over 10 µM. `O=C1COC[C@H](Cc2ccc(Cl)cc2)N1C1CCN(c2ccccn2)CC1` [Compound 147, (S)-5-(4-chlorobenzyl)-4-(1-(pyridin-2-yl)piperidin-4-yl)morpholin-3-one hydrochloride] gave an IC50 of over 10 µM. In the case of `C[C@H]1CN(C2CCN(c3ccnc(Cl)n3)CC2)[C@@H](Cc2ccc(Cl)cc2)CO1` [Compound 66, (2S,5S)-5-(4-chlorobenzyl)-4-(1-(2-chloropyrimidin-4-yl)piperidin-4-yl)-2-methylmorpholine], the IC50 is reported as over 10 µM.
